Legend:
[1] = Photographic single layer element: Dmax, Dmin, gamma and λmax after color development
Description: Single layer photographic elements were prepared by coating a cellulose acetate-butyrate film support with a photosensitive layer containing a silver bromide emulsion at 70.2 and 140.4 mg/ft^2 for 2 and 4 equivalent couplers, respectively, gelatin at 350 mg/ft^2 and an image coupler (0.20 mmol/ft^2) dispersed in half its weight of dibutyl phthalate. The photosensitive layer was overcoated with a layer containing gelatin at 250 mg/ft^2 and bis vinylsulfonyl methyl ether hardener at 2.0 weight percent based on total gel.
Samples of each element were exposed imagewise through a stepped density test object and processed at 100° F. employing the following color developing solution, then stopped with a low pH bath, bleached, fixed, washed and dried to produce stepped colored images.
Color Developer Solution (2')
4-Amino-3-methyl-N-ethyl 3.55 g
Water to make 1 liter, pH 10.0
Densitometry in the appropriate color maximum density (Dmin and Dmax) and gamma defined as the maximum slope between any two adjacent density points.

pKa Measurements = assay type: physicochemical; conditions: Table 1
Text: The structural preference of the coupler for the axial conformation has important implications for […]. Due largely to the ability of the carbonyl oxygen to enolize and form H-bonds with the oxygen atoms of the dioxane ring, the pKa of the coupler is generally 1-2 units lower than pivaloyl acetanilide-based couplers. A lower pKa value means that the coupler ionizes more readily at pH 10, and results in higher coupling activity with oxidized color developer, as shown in Table 1.

[2] = Table 4, color developer pH 10.0

**Q.** What does the source list for `CCCCCCCCCCCCCCCCS(=O)(=O)Nc1ccc(Cl)c(NC(=O)CC(=O)C(C)(C)C)c1` [P-V, reference compound]?
**A.** λmax ([1]; Table 3, D99, pH 10.0, KS-2): 449; λmax [1, 2]: 449 nm

**Q.** What does the source list for `CCC(C)(C)c1ccc(OCCCC(=O)Nc2ccc(Cl)c(NC(=O)CC(=O)C3(C)COCOC3)c2)c(C(C)(C)CC)c1` [Coupler D-5]?
**A.** λmax ([1]; Table 3, D99, pH 10.0, KS-2): 452; λmax [1, 2]: 452 nm

**Q.** For `CCOC1C(=O)N(C(C(=O)Nc2cc(NC(=O)CCCOc3ccc(C(C)(C)CC)cc3C(C)(C)CC)ccc2OC)C(=O)C2(C)COC(C)(C)OC2)C(=O)N1Cc1ccccc1` [Coupler D-8], which λmax [1, 2] is on record?
**A.** The λmax was 445 nm.

**Q.** Which results are given for `CCC(C)(C)c1ccc(OCCCC(=O)Nc2ccc(Cl)c(NC(=O)C(Oc3ccc(S(=O)(=O)c4ccc(O)cc4)cc3)C(=O)C3(C)COCOC3)c2)c(C(C)(C)CC)c1` [Coupler D-10]?
**A.** λmax [1, 2]: 453 nm; pKa (pKa Measurements): 7.55

**Q.** For `CCC(C)(C)c1ccc(OCCCC(=O)Nc2ccc(OC)c(NC(=O)C(Oc3ccc(S(=O)(=O)c4ccc(O)cc4)cc3)C(=O)C3(C)COCOC3)c2)c(C(C)(C)CC)c1` [Coupler D-14], which λmax [1, 2] is on record?
**A.** Its λmax is 448 nm.

**Q.** For `CCC(C)(C)c1ccc(OCCCC(=O)Nc2ccc(Cl)c(NC(=O)CC(=O)C3(C)COC(C)(C)OC3)c2)c(C(C)(C)CC)c1` [Coupler D-0], which pKa (pKa Measurements) is on record?
**A.** Its pKa is 8.51.

**Q.** For `CCCCCCCCCCCCCCCCS(=O)(=O)Nc1ccc(Cl)c(NC(=O)C(Oc2ccc(S(=O)(=O)c3ccc(OCc4ccccc4)cc3)cc2)C(=O)C(C)(C)C)c1` (stereo not drawn) [P-I, reference compound], which λmax [1, 2] is on record?
**A.** Its λmax is 452 nm.

**Q.** With `CCCCCCCCCCCCCCCCS(=O)(=O)Nc1ccc(OC)c(NC(=O)CC(=O)C2(C)COC(C)(C)OC2)c1` [Coupler D-2] as the compound, how does the λmax ([1]; Table 3, D99, pH 10.0, KS-2) read?
**A.** The λmax was 446.

**Q.** With `CCC(C)(C)c1ccc(OCCCC(=O)Nc2cccc(NC(=O)C(Oc3ccc(S(=O)(=O)c4ccc(O)cc4)cc3)C(=O)C3(C)COCOC3)c2)c(C(C)(C)CC)c1` [Coupler D-12] as the compound, how does the λmax [1, 2] read?
**A.** The λmax was 454 nm.

**Q.** With `CCC(C)(C)c1ccc(OCCCC(=O)Nc2ccc(OC)c(NC(=O)CC(=O)C3(C)COCOC3)c2)c(C(C)(C)CC)c1` [Coupler D-3] as the compound, how does the λmax [1, 2] read?
**A.** The λmax was 446 nm.

**Q.** Which results are given for `CCC(C)(C)c1ccc(OCCCC(=O)Nc2ccc(Cl)c(NC(=O)C(Oc3ccc(S(=O)(=O)c4ccc(OCc5ccccc5)cc4)cc3)C(=O)C(C)(C)C)c2)c(C(C)(C)CC)c1` (stereo not drawn) [P-III, reference compound]?
**A.** λmax [1, 2]: 450 nm; pKa (pKa Measurements): 8.76

**Q.** With `CCC(C)(C)c1ccc(OCCCC(=O)Nc2ccc(Cl)c(NC(=O)CC(=O)C(C)(C)C)c2)c(C(C)(C)CC)c1` [P-VI, reference compound] as the compound, how does the λmax ([1]; Table 3, D99, pH 10.0, KS-2) read?
**A.** Its λmax is 447.

**Q.** And the λmax [1, 2]?
**A.** The λmax was 447 nm.

**Q.** What about the pKa (pKa Measurements) of the same compound?
**A.** The pKa was 10.01.

**Q.** For `CCCCCCCCCCCCCCCCS(=O)(=O)Nc1ccc(Cl)c(NC(=O)CC(=O)C2(C)COCOC2)c1` [Coupler D-4], which λmax ([1]; Table 3, D99, pH 10.0, KS-2) is on record?
**A.** The λmax was 454.

**Q.** What about the λmax [1, 2] of the same compound?
**A.** Its λmax is 454 nm.

**Q.** And the pKa (pKa Measurements)?
**A.** Its pKa is 8.42.

**Q.** With `CCC(C)(C)c1ccc(OCCCC(=O)Nc2ccc(Cl)c(NC(=O)C(Oc3ccc(S(=O)(=O)c4ccc(OCc5ccccc5)cc4)cc3)C(=O)C3(C)COCOC3)c2)c(C(C)(C)CC)c1` [Coupler D-11] as the compound, how does the pKa (pKa Measurements) read?
**A.** The pKa was 7.24.

**Q.** With `CCC(C)(C)c1ccc(OCCCC(=O)Nc2ccc(OC)c(NC(=O)C(Oc3ccc(S(=O)(=O)c4ccc(O)cc4)cc3)C(=O)C3(C)COC(C)(C)OC3)c2)c(C(C)(C)CC)c1` [Coupler D-7] as the compound, how does the λmax [1, 2] read?
**A.** Its λmax is 445 nm.

**Q.** With `CCC(C)(C)c1ccc(OCCCC(=O)Nc2ccc(C)c(NC(=O)C(Oc3ccc(S(=O)(=O)c4ccc(O)cc4)cc3)C(=O)C3(C)COCOC3)c2)c(C(C)(C)CC)c1` [Coupler D-13] as the compound, how does the λmax [1, 2] read?
**A.** The λmax was 452 nm.
